# Source: patent publication US9751840B2, “R-7-(3-aminomethyl-4-methoxyimino-3-methyl-pyrrolidin-1-yl)-1-cyclopropyl-6-fluoro-4-oxo-acid and L-aspartic acid salt, process for the preparation thereof and pharmaceutical composition comprising the same for antimicrobial” (ARIBIO CO. LTD., priority 2009, dated 2017)
# Read-outs that look alike come from different tables or passages of the source.
# Columns and labels:
# [1] = Stability test in distilled water; type: physicochemical; settings: 30 mg in 100 ml distilled water
# Male ICR mice = assay: Single dose toxicity in mice (LD50); settings: single intraperitoneal dose, observed 14 days
# Protocol: The following experiment was performed in order to observe the degree of toxicity of the L-aspartate according to the present invention.
# Male ICR mice were used as experimental animals. 5 male ICR mice were divided into 6 dose groups, respectively and fasted except for water for 24 hours.
# [2] = tested on: polychromatic erythrocyte with one or more nuclei (MNPCE); assay: In vivo genotoxicity, micronucleus test; settings: male mice, intraperitoneal, 7.5 mg/kg
# From the text: The following study performed to obtain in vivo genotoxicities, micronucleus test of L-aspartate and hydrochloric acid salt in male mice to the following procedure.
# [3] = In vivo pharmacokinetic test; design: species or system SD rats; settings: rats; for AUC(0-t) / Cmax / Tmax: SD, rat, plasma
# From the text: The L-aspartate and hydrochloride according to the present invention were orally or intravenously administered to SD rats, respectively and blood samples were collected at a predetermined time to compare in vivo pharmacokinetics.
# Then, Cmax: maximum drug concentration, Tmax: maximum drug concentration time, T1/2: drug half-life, AUCO-t: area under the plasma concentration-time curve from time zero to t hours, and AUCO-inf: area under the plasma concentration-time curve from time zero to infinity.
# Solubility test = type: physicochemical; settings: room temperature, water
# [4] = In vivo tissue distribution test; design: species or system ICR mice; settings: ICR, mouse, spleen, po, 100 mg/kg; read-out: P ratio Spleen
# [5] = In vivo tissue distribution test; design: species or system ICR mice; settings: mouse, po; for Kp: ICR, 100 mg/kg
# Protocol: An in vivo tissue distribution test was performed in order to confirm the degree of drug distribution of the L-aspartate and hydrochloride according to the present invention in each organ. After 8-week-old ICR mice were purchased and adapted in the laboratory, each salt was orally administered to the mouse at a dose of 100 mg/kg. The mice were bled and sacrificed at a predetermined time and each organ was drawn to measure the concentration in each organ. After the administration of hydrochloride and L-aspartate, each organ concentration over time, the area under the corresponding time-concentration curve, and the ratio of permeation into tissue were shown in Tables 5 and 6.
# Then, P ratio is a ratio of permeation into muscle and calculated as intramuscular AUC/intraplasmic AUC.
# [6] = male, testicle, ICR mice, p.o. 100 mg/kg, read-out: Testicle concentration
# [7] = brain, ICR mice, p.o. 100 mg/kg, read-out: Brain concentration
# [8] = heart, ICR mice, p.o. 100 mg/kg, read-out: Heart concentration
# [9] = kidney, ICR mice, p.o. 100 mg/kg, read-out: Kidney concentration
# [10] = liver, ICR mice, p.o. 100 mg/kg, read-out: Liver concentration
# [11] = lung, ICR mice, p.o. 100 mg/kg, read-out: Lung concentration
# [12] = muscle, ICR mice, p.o. 100 mg/kg, read-out: Muscle concentration
# [13] = plasma, ICR mice, p.o. 100 mg/kg, read-out: Plasma concentration
# [14] = spleen, ICR mice, p.o. 100 mg/kg, read-out: Spleen concentration
# [15] = testicle, ICR mice, p.o. 100 mg/kg, read-out: Testicle concentration
# [16] = thymus, ICR mice, p.o. 100 mg/kg, read-out: Thymus concentration
compound,measurement,setting,value
CON=C1CN(c2nc3c(cc2F)c(=O)c(C(=O)O)cn3C2CC2)C[C@@]1(C)CN.Cl [Hydrochloride (Comparative Example 3)],Content (%) 60? (after 3 weeks),"[1]; 60?, 3 weeks",90.0%
same,Content (%) Initial,[1]; initial,97.9%
same,Content (%) Room temperature (after 3 weeks),"[1]; room temperature, 3 weeks",98.0%
same,Lethal dose 50,Male ICR mice,176 mg/kg
same,MNPCE number,[2],singificantly increase
same,AUC(0-t),"[3]; iv, i.v. 10 mg/kg",8720 ± 330 ng·h/mL
same,Cmax,"[3]; iv, i.v. 10 mg/kg",4460 ± 960 ng/mL
same,Tmax,"[3]; iv, i.v. 10 mg/kg",0 h
same,AUC(0-t),"[3]; po, p.o. 100 mg/kg",44400 ± 21400 ng·h/mL
same,Cmax,"[3]; po, p.o. 100 mg/kg",7620 ± 3930 ng/mL
same,Tmax,"[3]; po, p.o. 100 mg/kg",2.13 ± 1.97 h
same,BA (%),"[3]; p.o. 100 mg/kg, calculated by ratio of AUC0-t",50.96%
same,solubility,Solubility test,93.3 mg/mL
same,Kp,[4],8.66
same,Kp,"[5]; brain, read-out: P ratio Brain",0.27
same,Kp,"[5]; heart, read-out: P ratio Heart",4.19
same,Kp,"[5]; kidney, read-out: P ratio Kidney",6.59
same,Kp,"[5]; liver, read-out: P ratio Liver",10.5
same,Kp,"[5]; lung, read-out: P ratio Lung",5.59
same,Kp,"[5]; muscle, read-out: P ratio Muscle",3.92
same,Kp,"[5]; thymus, read-out: P ratio Thymus",4.83
same,Kp,"[5]; male, testicle, read-out: P ratio Testicle",1.7
same,concentration at 0.5 h,[5]; [6],4790 ng/g
same,concentration at 1 h,[5]; [6],8360 ng/g
same,concentration at 8 h,[5]; [6],7770 ng/g
same,concentration at 0.5 h,[5]; [7],2510 ng/g
same,concentration at 1 h,[5]; [7],3090 ng/g
same,concentration at 1.5 h,[5]; [7],2720 ng/g
same,concentration at 2 hr,[5]; [7],3180 ng/g
same,concentration at 3 h,[5]; [7],1990 ng/g
same,concentration at 5 h,[5]; [7],1600 ng/g
same,concentration at 8 h,[5]; [7],730 ng/g
same,concentration at 0.5 h,[5]; [8],59300 ng/g
same,concentration at 1 h,[5]; [8],61200 ng/g
same,concentration at 1.5 hr,[5]; [8],52700 ng/g
same,concentration at 2 hr,[5]; [8],57600 ng/g
same,concentration at 3 h,[5]; [8],25500 ng/g
same,concentration at 5 h,[5]; [8],17300 ng/g
same,concentration at 8 h,[5]; [8],8860 ng/g
same,concentration at 0.5 h,[5]; [9],90800 ng/g
same,concentration at 1 h,[5]; [9],87800 ng/g
same,concentration at 1.5 h,[5]; [9],75500 ng/g
same,concentration at 2 hr,[5]; [9],69900 ng/g
same,concentration at 3 h,[5]; [9],43000 ng/g
same,concentration at 5 h,[5]; [9],32800 ng/g
same,concentration at 8 h,[5]; [9],18000 ng/g
same,concentration at 0.5 h,[5]; [10],161000 ng/g
same,concentration at 1 h,[5]; [10],125000 ng/g
same,concentration at 1.5 h,[5]; [10],113000 ng/g
same,concentration at 2 hr,[5]; [10],109000 ng/g
same,concentration at 3 h,[5]; [10],69000 ng/g
same,concentration at 5 h,[5]; [10],55700 ng/g
same,concentration at 8 h,[5]; [10],27000 ng/g
same,concentration at 0.5 h,[5]; [11],82800 ng/g
same,concentration at 1 h,[5]; [11],79500 ng/g
same,concentration at 1.5 h,[5]; [11],73600 ng/g
same,concentration at 2 hr,[5]; [11],63700 ng/g
same,concentration at 3 h,[5]; [11],38800 ng/g
same,concentration at 5 h,[5]; [11],23400 ng/g
same,concentration at 8 h,[5]; [11],11400 ng/g
same,concentration at 0.5 h,[5]; [12],39800 ng/g
same,concentration at 1 h,[5]; [12],52000 ng/g
same,concentration at 1.5 h,[5]; [12],50400 ng/g
same,concentration at 2 hr,[5]; [12],50800 ng/g
same,concentration at 3 h,[5]; [12],28300 ng/g
same,concentration at 5 h,[5]; [12],18400 ng/g
same,concentration at 8 h,[5]; [12],8260 ng/g
same,concentration at 0.5 h,[5]; [13],15500 ng/mL
same,concentration at 1 h,[5]; [13],14200 ng/mL
same,concentration at 1.5 h,[5]; [13],12100 ng/mL
same,concentration at 2 hr,[5]; [13],12000 ng/mL
same,concentration at 3 h,[5]; [13],6240 ng/mL
same,concentration at 5 h,[5]; [13],4320 ng/mL
same,concentration at 8 h,[5]; [13],2290 ng/mL
same,AUC(0-t),"[5]; plasma, ICR mice, p.o. 100 mg/kg, read-out: AUC0-t Plasma",53600 ng·h/mL
same,concentration at 0.5 h,[5]; [14],102000 ng/g
same,concentration at 1 h,[5]; [14],112000 ng/g
same,concentration at 1.5 hr,[5]; [14],107000 ng/g
same,concentration at 2 hr,[5]; [14],102000 ng/g
same,concentration at 3 h,[5]; [14],59800 ng/g
same,concentration at 5 h,[5]; [14],42100 ng/g
same,concentration at 8 h,[5]; [14],21500 ng/g
same,concentration at 1.5 hr,[5]; [15],12700 ng/g
same,concentration at 2 hr,[5]; [15],17000 ng/g
same,concentration at 3 h,[5]; [15],14200 ng/g
same,concentration at 5 h,[5]; [15],12900 ng/g
same,concentration at 0.5 h,[5]; [16],24600 ng/g
same,concentration at 1 h,[5]; [16],58000 ng/g
same,concentration at 1.5 hr,[5]; [16],60800 ng/g
same,concentration at 2 hr,[5]; [16],61300 ng/g
same,concentration at 3 h,[5]; [16],38400 ng/g
same,concentration at 5 h,[5]; [16],25700 ng/g
same,concentration at 8 h,[5]; [16],12800 ng/g
